Reference: US6656925B2, “Composition and method of treating arthritis” (Advanced Medical Instruments, priority 1998, dated 2003)

Key:
[1] = absorbed by the gastrointestinal tract, significant first-pass metabolism in the liver; cited from earlier work
osteoarthritis symptoms = details: cited from earlier work
weakness of hind legs = test: Case report: 12 year old Weimaraner with weakness of hind legs (Example 3); assay type: in vivo, dog (Weimaraner); details: prednisone 20 mg per day
Protocol: A 12 year old Weimaraner developed weakness of his hind legs which limited his ability to jump and lift his leg to urinate. […] He was then started on the new composition, of the invention, comprising zinc acetate 20 mg and glucosamine sulfate 500 mg coated with polyvinylpirrolidone 7 mg taken twice a day. […] He was then maintained on glucosamine sulfate 500 mg and zinc acetate 10 mg, twice a day for 11 months until his death.

[2] = most common adverse effect of zinc therapy; cited from earlier work

## N[C@H]1C(O)O[C@H](CO)[C@@H](O)[C@@H]1O (some centres unmarked) [Glucosamine]
[1]
  bioavailibility: 26%

## N[C@H]1C(O)O[C@H](CO)[C@@H](O)[C@@H]1O.O=S(=O)(O)O (some centres unmarked) [glucosamine sulfate]
Osteoarthritis symptoms; after discontinuation
  persistence of clinical improvement after discontinuation: up to four weeks
Osteoarthritis symptoms; after oral administration
  onset of clinical improvement of symptoms: as early as one week

## C[C@]12C=CC(=O)C=C1CC[C@@H]1[C@@H]2C(=O)C[C@@]2(C)[C@H]1CC[C@]2(O)C(=O)CO [prednisone]
Weakness of hind legs
  response of hind leg weakness: limited success

## [Zn] [zinc]
[2]
  gastrointestinal irritation, share of patients: approximately 10 % of patients
